How the values were obtained:
[1] = system: Female CD-1 mice; test: Dexamethasone-induced thymic and splenic atrophy, anti-glucocorticoid effect (Example 4); type: in vivo; details: for Spleen Wt. / Thymus Wt.: no DEX
Description: Female CD-1 mice were obtained from Charles River Laboratories, Kingston, N.Y. at 43-45 days of age. The mice were housed five per cage in plastic shoebox cages on corn cob bedding in the Fels Animal Facility at 72°±2° F. with 50%±5% humidity and twelve hours of alternate light and darkness. The mice had ad libitum access to Purina chain 5015 and acidified water for pretreatment.
Six days later, the mice were weighed, earmarked and redistributed into six groups for treatment: 1) a control group, 2) a group treated with dexamethasone (“DEX”), a glucocorticoid which induces thymic and splenic atrophy, 3) a group treated with 200 mg/kg 16α-fluoro-5-androsten-17-one (hereinafter “drug”), 4) a group treated with 400 mg/kg of, 5) a group treated with dexamethasone and 200 mg/kg drug and 6) a group treated with dexamethasone and 400 mg/kg drug. The treatment in the groups were as follows and were conducted simuitaneously.
The control group was intubated with 0.2 mL of sesame oil for three days. On the third day after commencement of the intubation, the mice were injected subcutaneously with 0.05 mL of absolute ethanol one hour after the last treatment with sesame oil.
The second group was intubated with 0.2 mL of sesame oil for three days. On the third day after the commencement of the intubation, the mice were injected subcutaneously with 1.6 mg of dexamethasone dissolved in 0.05 mL of absolute ethanol approximately one hour after the last treatment with sesame oil.
The third and fourth groups were intubated with 200 mg/Kg and 400 mg/Kg drug, respectively, suspended in 0.2 mL of sesame oil for three days. After commencement of the intubation, the mice were injected subcutaneously with 0.05 mL of absolute ethanol approximately one hour after the last treatment with sesame oil.
The fifth and sixth groups were intubated with 200 mg/kg and 400 mg/kg, respectively, of drug, suspended in 0.2 mL of sesame oil for three days. On the third day after commencement of the intubation, the mice were injected subcutaneously with 1.6 mg of dexamethasome dissolved in 0.05 mL of absolute ethanol approximately one hour after the last treatment with sesame oil.
All of the mice were sacrificed by an overdose of CO2 approximately 24 hours after the injection of ethanol (first, third and fourth groups) or approximately 24 hours after injection with dexamethasone (second, fifth and sixth groups). The mice were weighed and the thymus was excised, cleaned of adventia, rinsed in phosphate-buffered saline (P.B.S.), blotted and weighed. The spleen was also excised, cleaned, rinsed, blotted and weighed.

[2] = system: normal young men and women; test: Phase I trial, oral fluasterone 14 days: HDL levels (Example 5a); type: in vivo, human
Description: (a) In a phase I trial in normal young men and women fluasterone was administered in a daily oral dose of 800 mg or 1600 mg for 14 days. The effect of this treatment on HDL levels in males and females is seen in the table hereinbelow.

[3] = 200 mg/kg drug intubated for three days
[4] = 400 mg/kg drug intubated for three days

Compound: C[C@]12CCCCC1=CC[C@@H]1[C@@H]2CC[C@]2(C)C(=O)[C@H](F)C[C@@H]12 [fluasterone, 16α-fluoro-5-androsten-17-one]
- Spleen Wt. [1, 3]: 103.5 ± 9.2 mg
- Thymus Wt. [1, 3]: 65.0 ± 5.8 mg
- Effect on dexamethasone-induced thymic and splenic atrophy ([1]; 400 mg/kg): significantly reduced dexamethasone-induced thymic and splenic atrophy
- Spleen Wt. [1, 4]: 129.4 ± 17.9 mg
- Thymus Wt. [1, 4]: 74.3 ± 7.1 mg
- HDL Levels ([2]; 800 mg daily oral for 14 days, Females (6), treatment, less than pretreatment, p < 0.015): 46.1 ± 6.2 mg/dL
- HDL Levels ([2]; 800 mg daily oral for 14 days, Males (6), treatment): 45.3 ± 15.9 mg/dL
- HDL Levels ([2]; 800 mg daily oral, Females (6), pretreatment): 59.2 ± 7.0 mg/dL
- HDL Levels ([2]; 800 mg daily oral, Males (6), pretreatment): 50.3 ± 20.1 mg/dL
- HDL Levels ([2]; 1600 mg daily oral for 14 days, Females (5), treatment): 43.0 ± 8.1 mg/dL
- HDL Levels ([2]; 1600 mg daily oral for 14 days, Males (7), treatment): 40.2 ± 7.4 mg/dL
- HDL Levels ([2]; 1600 mg daily oral, Females (5), pretreatment): 45.3 ± 10.1 mg/dL
- HDL Levels ([2]; 1600 mg daily oral, Males (7), pretreatment): 46.1 ± 6.6 mg/dL

From patent US20040019026A1, “Compounds useful for treating hypertriglyceridemia” (priority 2000, published 2004)
